Reference: article PMC12892976, “Alkylation-based optimization of antifungal FPPS inhibitors yields a potent, broad-spectrum lipophilic zoledronate derivative” (mBio, 2025)
Values after ≈ are worked out from the molar mass of the structure shown. Read-outs that look alike come from different tables or passages of the source.

Legend:
[1] = system: Cryptococcus deuterogattii; assay: MIC/MFC broth microdilution (CLSI); details: Cryptococcus deuterogattii;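 note: broth microdilution per CLSI M27-Ed4. MFC is the lowest concentration yielding no colonies when MIC broths are subcultured onto SDA plates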
Experimental: (§1) Antifungal susceptibility was determined by broth microdilution according to the CLSI guidelines described in M27-Ed4 ([16]). […] MFC was determined by back-plating drug-treated cultures from MIC broths onto SDA plates. The MFC was defined as the lowest concentration from which no colonies could be cultured.

[2] = system: Aspergillus fumigatus; assay: checkerboard drug interaction (FICI, MICc); assay type: cell-based;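 note: simplified diagonal checkerboard screen pairing antifungals with FPPS inhibitors against Aspergillus fumigatus, with FICI calculated under the Loewe additivity model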
Experimental: (§2) Drug interactions between antifungals and FPPS inhibitors were investigated using a simplified checkerboard diagonal screening method ([45]). […] FICIs were determined according to the Loewe additivity model ([17]).

[3] = system: eight fungal species; assay: MIC/MFC summary across the eight fungal species of Table 1; assay type: cell-based
Experimental: The antifungal activity of these compounds was evaluated according to CLSI guidelines ([16]).

[4] = system: eight fungal species; assay: checkerboard interaction with azoles, summary across the eight species; assay type: cell-based; details: geometric mean MIC in combination with azoles
Description: Synergy between lipophilic FPPS inhibitors and azole antifungals was investigated by determining the fractional inhibitory concentration index (FICI) (Fig. 2; Table S1 Fig. S1) ([17]). […]. Derivatives PLA9 and 11, and PDA9, 11, and 12 antagonized azoles in C. albicans, C. neoformans, and C. deuterogattii, yet were largely synergistic in C. glabrata and S. cerevisiae. […].

[5] = system: HEK-293T cells; assay: MTT reduction cytotoxicity assay; assay type: cell-based; details: Homo sapiens, HEK-293T, 72 h, MTT, 72 h
[6] = system: Cryptococcus neoformans; assay: MIC/MFC broth microdilution (CLSI); details: Cryptococcus neoformans;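 note: susceptibility testing followed the CLSI M27-Ed4 broth microdilution document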
Experimental: as §1

[7] = system: Aspergillus fumigatus; assay: MIC/MFC broth microdilution (CLSI); details: ATCC204305
Experimental: as §1

[8] = system: Cryptococcus neoformans; assay: checkerboard drug interaction (FICI, MICc);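 for all read-outs here: antifungal plus FPPS inhibitor pairs tested against Cryptococcus neoformans by simplified diagonal checkerboard screening, FICI computed under the Loewe additivity model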; assay type: cell-based; details: C. neoformans; for INH FD (MIC-MICc fold decrease): fold decrease of inhibitor MIC
Experimental: as §2

[9] = system: Saccharomyces cerevisiae; assay: checkerboard drug interaction (FICI, MICc); assay type: cell-based; design: INH MICc / INH MICc (ITR:INH) / INH MICc (KET:INH) / INH MICc (FLC:INH): unit not given beside the values;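 note: simplified diagonal checkerboard screen pairing antifungals with FPPS inhibitors, FICI calculated under the Loewe additivity model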
[10] = system: Candida albicans; assay: checkerboard drug interaction (FICI, MICc);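 for all read-outs here: antifungal plus FPPS inhibitor combinations on Candida albicans tested by a simplified diagonal checkerboard screen, with FICI calculated under the Loewe additivity model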; assay type: cell-based; details: C. albicans; for INH FD (MIC-MICc fold decrease): fold decrease of inhibitor MIC
Experimental: as §2

[11] = system: Candida glabrata; assay: checkerboard drug interaction (FICI, MICc);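 for all read-outs here: simplified diagonal checkerboard screen pairing antifungals with FPPS inhibitors, FICI calculated under the Loewe additivity model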; assay type: cell-based; details: C. glabrata; for INH FD (MIC-MICc fold decrease): fold decrease of inhibitor MIC
Experimental: as §2

[12] = system: Candida albicans; assay: MIC/MFC broth microdilution (CLSI); assay type: cell-based; details: Candida albicans SC5314
Experimental: as §1

[13] = system: Trichophyton rubrum; assay: checkerboard drug interaction (FICI, MICc);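 note: simplified diagonal checkerboard screen pairing azole antifungals with FPPS inhibitors, FICI calculated under the Loewe additivity model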; assay type: cell-based; details: T. rubrum
Experimental: as §2

[14] = system: Aspergillus flavus; assay: checkerboard drug interaction (FICI, MICc);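 note: simplified diagonal checkerboard screen pairing azole antifungals with FPPS inhibitors, FICI calculated under the Loewe additivity model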; assay type: cell-based; design: INH MICc (KET:INH) / INH MICc (FLC:INH): unit not given beside the values; details: A. flavus
[15] = system: Aspergillus flavus; assay: MIC/MFC broth microdilution (CLSI); details: ATCC204304
Experimental: as §1

[16] = system: Trichophyton rubrum; assay: MIC/MFC broth microdilution (CLSI); details: Trichophyton rubrum
Experimental: as §1

[17] = system: Candida glabrata; assay: MIC/MFC broth microdilution (CLSI); details: Nakaseomyces glabratus, CBS138;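 note: broth microdilution following CLSI M27-Ed4, MFC taken as the lowest drug level yielding no growth once MIC wells were subcultured on SDA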
Experimental: as §1

[18] = system: Saccharomyces cerevisiae; assay: MIC/MFC broth microdilution (CLSI); assay type: cell-based; details: Saccharomyces cerevisiae S288c
Experimental: as §1

[19] = system: Cryptococcus deuterogattii; assay: checkerboard drug interaction (FICI, MICc);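 for all read-outs here: simplified diagonal checkerboard screen pairing antifungal drugs with FPPS inhibitors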; assay type: cell-based; details: C. deuterogattii; for INH FD (MIC-MICc fold decrease): fold decrease of inhibitor MIC
Experimental: as §2

[20] = Fractional Inhibitory Concentration Index, fluconazole + inhibitor
[21] = Fractional Inhibitory Concentration Index, itraconazole + inhibitor
[22] = Fractional Inhibitory Concentration Index, ketoconazole + inhibitor
[23] = MIC of the inhibitor in combination with fluconazole
[24] = MIC of the inhibitor in combination with itraconazole
[25] = MIC of the inhibitor in combination with ketoconazole
[26] = MIC-MICc fold decrease of fluconazole, negative = increase
[27] = MIC-MICc fold decrease of itraconazole, negative = increase
[28] = MIC-MICc fold decrease of ketoconazole, negative = increase
[29] = MIC-MICc fold decrease of the inhibitor, with fluconazole
[30] = MIC-MICc fold decrease of the inhibitor, with itraconazole
[31] = MIC-MICc fold decrease of the inhibitor, with ketoconazole
[32] = FLC:INH combination, MIC of the inhibitor in combination with FLC
[33] = FLC:INH combination, fold decrease of FLC MIC
[34] = ITR:INH combination, MIC of the inhibitor in combination with ITR
[35] = ITR:INH combination, fold decrease of ITR MIC
[36] = KET:INH combination, MIC of the inhibitor in combination with KET
[37] = KET:INH combination, fold decrease of KET MIC

CCCCCCCCCCCCN1CCC[C@H]1C(=O)N[C@H](CC(=O)OC)C(=O)OC [dmPDA12]
MFC [1]: 32 µg/mL (≈ 75 µM) | MIC [1]: 8 µg/mL (≈ 18.8 µM) | FICI (FLC:INH) [2, 20]: 1.5 | FICI (ITR:INH) [2, 21]: 0.26 | FICI (KET:INH) [2, 22]: 2 | INH MICc (FLC:INH) [2, 23]: 128 | INH MICc (ITR:INH) [2, 24]: 1 | INH MICc (KET:INH) [2, 25]: 128 | FLC FD (FLC:INH) [2, 26]: 2 | ITR FD (ITR:INH) [2, 27]: 4 | KET FD (KET:INH) [2, 28]: 1 | INH FD (FLC:INH) [2, 29]: 1 | INH FD (ITR:INH) [2, 30]: 128 | INH FD (KET:INH) [2, 31]: 1 | MFC ([3]; across eight species, read-out: Geometric mean MFC): 140 µg/mL (≈ 327 µM) | MIC ([3]; geometric mean across eight species, read-out: GM fungal MIC): 49.4 µg/mL (≈ 116 µM) | MIC ([3]; read-out: Geometric mean MIC): 49.4 µg/mL (≈ 116 µM) | GM fungal MICc [4]: 12 | IC50 ([5]; HEK-293T cells, read-out: IC50): 0.161 µg/mL (≈ 0.377 µM) | IC50 ([5]; read-out: HEK IC50): 0.161 µg/mL (≈ 0.377 µM) | MFC [6]: 32 µg/mL (≈ 75 µM) | MIC [6]: 8 µg/mL (≈ 18.8 µM) | MFC [7]: > 128 µg/mL | MIC [7]: 128 µg/mL (≈ 300 µM) | FICI ([8]; FLC:INH combination): 1.25 | INH MICc [8, 32]: 8 | FLC FD (MIC-MICc fold decrease) [8, 33]: 4 | INH FD (MIC-MICc fold decrease) ([8]; FLC:INH combination): 1 | FICI ([8]; ITR:INH combination): 1.25 | INH MICc [8, 34]: 8 | ITR FD (MIC-MICc fold decrease) [8, 35]: 4 | INH FD (MIC-MICc fold decrease) ([8]; ITR:INH combination): 1 | FICI ([8]; KET:INH combination): 1.25 | INH MICc [8, 36]: 8 | KET FD (MIC-MICc fold decrease) [8, 37]: 4 | INH FD (MIC-MICc fold decrease) ([8]; KET:INH combination): 1 | FICI (FLC:INH) [9, 20]: 0.75 | FICI (ITR:INH) [9, 21]: 1.06 | FICI (KET:INH) [9, 22]: 0.56 | INH MICc (FLC:INH) [9, 23]: 32 | INH MICc (ITR:INH) [9, 24]: 4 | INH MICc (KET:INH) [9, 25]: 32 | FLC FD (FLC:INH) [9, 26]: 4 | ITR FD (ITR:INH) [9, 27]: 1 | KET FD (KET:INH) [9, 28]: 16 | INH FD (FLC:INH) [9, 29]: 2 | INH FD (ITR:INH) [9, 30]: 16 | INH FD (KET:INH) [9, 31]: 2 | FICI ([10]; FLC:INH combination): 1.06 | INH MICc [10, 32]: 8 | FLC FD (MIC-MICc fold decrease) [10, 33]: 1 | INH FD (MIC-MICc fold decrease) ([10]; FLC:INH combination): 16 | FICI ([10]; ITR:INH combination): 0.53 | INH MICc [10, 34]: 4 | ITR FD (MIC-MICc fold decrease) [10, 35]: 2 | INH FD (MIC-MICc fold decrease) ([10]; ITR:INH combination): 32 | FICI ([10]; KET:INH combination): 0.53 | INH MICc [10, 36]: 4 | KET FD (MIC-MICc fold decrease) [10, 37]: 2 | INH FD (MIC-MICc fold decrease) ([10]; KET:INH combination): 32 | FICI ([11]; FLC:INH combination): 2.5 | INH MICc [11, 32]: 8 | FLC FD (MIC-MICc fold decrease) [11, 33]: 2 | INH FD (MIC-MICc fold decrease) ([11]; FLC:INH combination): 1 | FICI ([11]; ITR:INH combination): 1.5 | INH MICc [11, 34]: 4 | ITR FD (MIC-MICc fold decrease) [11, 35]: 2 | INH FD (MIC-MICc fold decrease) ([11]; ITR:INH combination): 2 | FICI ([11]; KET:INH combination): 0.38 | INH MICc [11, 36]: 1 | KET FD (MIC-MICc fold decrease) [11, 37]: 8 | INH FD (MIC-MICc fold decrease) ([11]; KET:INH combination): 8 | MFC [12]: > 128 µg/mL | MIC [12]: > 128 µg/mL | FICI (FLC:INH) [13, 20]: ≥4 | FICI (ITR:INH) [13, 21]: ≥4 | FICI (KET:INH) [13, 22]: ≥4 | INH MICc (FLC:INH) [13, 23]: 32 | INH MICc (ITR:INH) [13, 24]: 32 | INH MICc (KET:INH) [13, 25]: 32 | FLC FD (FLC:INH) [13, 26]: -2 | ITR FD (ITR:INH) [13, 27]: 8 | KET FD (KET:INH) [13, 28]: 4 | INH FD (FLC:INH) [13, 29]: -4 | INH FD (ITR:INH) [13, 30]: -4 | INH FD (KET:INH) [13, 31]: -4 | FICI (FLC:INH) [14, 20]: 1.5 | FICI (ITR:INH) [14, 21]: 0.28 | FICI (KET:INH) [14, 22]: 0.27 | INH MICc (FLC:INH) [14, 23]: 128 | INH MICc (ITR:INH) [14, 24]: 8 | INH MICc (KET:INH) [14, 25]: 4 | FLC FD (FLC:INH) [14, 26]: 1 | ITR FD (ITR:INH) [14, 27]: 4 | KET FD (KET:INH) [14, 28]: 4 | INH FD (FLC:INH) [14, 29]: 2 | INH FD (ITR:INH) [14, 30]: 32 | INH FD (KET:INH) [14, 31]: 64 | MFC [15]: > 128 µg/mL | MIC [15]: > 128 µg/mL | MFC [16]: > 128 µg/mL | MIC [16]: 8 µg/mL (≈ 18.8 µM) | MFC [17]: 128 µg/mL (≈ 300 µM) | MIC [17]: 128 µg/mL (≈ 300 µM) | MFC [18]: > 128 µg/mL | MIC [18]: 64 µg/mL (≈ 150 µM) | FICI ([19]; FLC:INH combination): 2 | INH MICc [19, 32]: 64 | FLC FD (MIC-MICc fold decrease) [19, 33]: 1 | INH FD (MIC-MICc fold decrease) ([19]; FLC:INH combination): 1 | FICI ([19]; ITR:INH combination): 0.38 | INH MICc [19, 34]: 8 | ITR FD (MIC-MICc fold decrease) [19, 35]: 4 | INH FD (MIC-MICc fold decrease) ([19]; ITR:INH combination): 8 | FICI ([19]; KET:INH combination): 0.16 | INH MICc [19, 36]: 8 | KET FD (MIC-MICc fold decrease) [19, 37]: 32 | INH FD (MIC-MICc fold decrease) ([19]; KET:INH combination): 8
